Laboratory results reported in patent publication US20090221829A1 (priority 2005, published 2009).
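Note: scores 5 to 7 mean a lower fungicidal concentration than Miconazole so higher is more potent.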

The molecules below were run on Candida albicans(KCTC 1940), Aspergillus niger (ATCC 9642) and Saccharomyces cerevisiae (assay: Relative antifungal activity by agar dilution method (vs Miconazole)). Settings: agar dilution method; fungicidal concentration relative to control drug Miconazole (=4).
Assay type: cell-based
From the text: Novel compounds represented by the above chemical formula (I), and the relative activities in accordance with the agar dilution method in Sabouraud dextrose agar media, Czapek agar media and Yeast Extract-Peptone-Dextrose agar media for Candida albicans(KCTC 1940), Aspergillus niger (ATCC 9642) and Saccharomyces cerevisiae are described respectively in following Table 1.
CCCCCCCC1=[N+](Cc2ccc(F)c(F)c2)CCc2cc(OC)c(OC)cc21.[Cl-] [Compound No. 43, 1-n-heptyl-2-(3,4-difluorophenyl)methyl-3,4-dihydro-6,7-dimethoxyisoquinolinium chloride] was tested, and the “Relative Activity” value was 3. In the case of CCCCCCCCCCCC1=[N+](Cc2ccc(F)c(F)c2)CCc2cc(OC)c(OC)cc21.[Cl-] [Compound No. 44, 1-n-undecyl-2-(3,4-difluorophenyl)methyl-3,4-dihydro-6,7-dimethoxyisoquinolinium chloride], the “Relative Activity” value is reported as 1. In the case of CCCCCCC1=[N+](Cc2ccc(C(F)(F)F)cc2)CCc2cc(OC)c(OC)cc21.[Cl-] [Compound No. 45, 1-n-hexyl-2-(4-trifluoromethylphenyl)methyl-3,4-dihydro-6,7-dimethoxyisoquinolinium chloride], the “Relative Activity” value is reported as 4. For CCCCCCCCCCCCCCCC1=[N+](Cc2ccc(F)c(F)c2)CCc2cc(OC)c(OC)cc21.[Cl-] [Compound No. 46, 1-n-pentadecyl-2-(3,4-difluorophenyl)methyl-3,4-dihydro-6,7-dimethoxyisoquinolinium chloride], the “Relative Activity” value was 1. For COc1cc2c(cc1OC)C(c1ccccc1F)=[N+](Cc1ccc(F)c(F)c1)CC2.[Cl-] [Compound No. 47, 1-(2-fluorophenyl)-2-(3,4-difluorophenyl)methyl-3,4-dihydro-6,7-dimethoxyisoquinolinium chloride], the “Relative Activity” value was 6. With COc1cc2c(cc1OC)C(C)=[N+](Cc1ccccc1Cl)CC2.[Cl-] [Compound No. 49, 1-methyl-2-(2-chlorophenyl)methyl-3,4-dihydro-6,7-dimethoxyisoquinolinium chloride] the “Relative Activity” value was 6. In the case of CCCCCC1=[N+](Cc2ccccc2Cl)CCc2cc(OC)c(OC)cc21.[Cl-] [Compound No. 50, 1-n-pentyl-2-(2-chlorophenyl)methyl-3,4-dihydro-6,7-dimethoxyisoquinolinium chloride], the “Relative Activity” value is reported as 6. With CCCCCCC1=[N+](Cc2ccccc2Cl)CCc2cc(OC)c(OC)cc21.[Cl-] [Compound No. 51, 1-n-hexyl-2-(2-chlorophenyl)methyl-3,4-dihydro-6,7-dimethoxyisoquinolinium chloride] the “Relative Activity” value was 4. With CCCCCCCC1=[N+](Cc2ccccc2Cl)CCc2cc(OC)c(OC)cc21.[Cl-] [Compound No. 52, 1-n-heptyl-2-(2-chlorophenyl)methyl-3,4-dihydro-6,7-dimethoxyisoquinolinium chloride] the “Relative Activity” value was 3. CCCCCCCCCCCC1=[N+](Cc2ccccc2Cl)CCc2cc(OC)c(OC)cc21.[Cl-] [Compound No. 53, 1-n-undecyl-2-(2-chlorophenyl)methyl-3,4-dihydro-6,7-dimethoxyisoquinolinium chloride] was tested, and the “Relative Activity” value was 2. In the case of CCCCCCCCCCCCCCCC1=[N+](Cc2ccccc2Cl)CCc2cc(OC)c(OC)cc21.[Cl-] [Compound No. 54, 1-n-pentadecyl-2-(2-chlorophenyl)methyl-3,4-dihydro-6,7-dimethoxyisoquinolinium chloride], the “Relative Activity” value is reported as 1. For COc1cc2c(cc1OC)C(C)=[N+](Cc1c(F)cccc1F)CC2.[Cl-] [Compound No. 56, 1-methyl-2-(2,6-difluorophenyl)methyl-3,4-dihydro-6,7-dimethoxyisoquinolinium chloride], the “Relative Activity” value was 6. In the case of CCCCCCC1=[N+](Cc2c(F)cccc2F)CCc2cc(OC)c(OC)cc21.[Cl-] [Compound No. 58, 1-n-hexyl-2-(2,6-difluorophenyl)methyl-3,4-dihydro-6,7-dimethoxyisoquinolinium chloride], the “Relative Activity” value is reported as 4. For CCCCCCCCCCCC1=[N+](Cc2c(F)cccc2F)CCc2cc(OC)c(OC)cc21.[Cl-] [Compound No. 59, 1-n-undecyl-2-(2,6-difluorophenyl)methyl-3,4-dihydro-6,7-dimethoxyisoquinolinium chloride], the “Relative Activity” value was 1. In the case of CCCCCCCC1=[N+](Cc2c(F)cccc2F)CCc2cc(OC)c(OC)cc21.[Cl-] [Compound No. 61, 1-n-heptyl-2-(2,6-difluorophenyl)methyl-3,4-dihydro-6,7-dimethoxyisoquinolinium chloride], the “Relative Activity” value is reported as 4. COc1cc2c(cc1OC)C(c1ccc(C(C)(C)C)cc1)=[N+](Cc1c(F)cccc1F)CC2.[Cl-] [Compound No. 63, 1-(4-t-butylphenyl)-2-(2,6-difluorophenyl)methyl-3,4-dihydro-6,7-dimethoxyisoquinolinium chloride] was tested, and the “Relative Activity” value was 6. With COc1cc2c(cc1OC)C(C)=[N+](Cc1c(F)cccc1Cl)CC2.[Cl-] [Compound No. 64, 1-methyl-2-(2-chloro-6-fluorophenyl)methyl-3,4-dihydro-6,7-dimethoxyisoquinolinium chloride] the “Relative Activity” value was 6. For COc1cc2c(cc1OC)C(C(C)C)=[N+](Cc1c(F)cccc1Cl)CC2.[Cl-] [Compound No. 65, 1-i-propyl-2-(2-chloro-6-fluorophenyl)methyl-3,4-dihydro-6,7-dimethoxyisoquinolinium chloride], the “Relative Activity” value was 5. CCCCCC1=[N+](Cc2c(F)cccc2Cl)CCc2cc(OC)c(OC)cc21.[Cl-] [Compound No. 66, 1-n-pentyl-2-(2-chloro-6-fluorophenyl)methyl-3,4-dihydro-6,7-dimethoxyisoquinolinium chloride] was tested, and the “Relative Activity” value was 5. In the case of CCCCCCCC1=[N+](Cc2c(F)cccc2Cl)CCc2cc(OC)c(OC)cc21.[Cl-] [Compound No. 67, 1-n-heptyl-2-(2-chloro-6-fluorophenyl)methyl-3,4-dihydro-6,7-dimethoxyisoquinolinium chloride], the “Relative Activity” value is reported as 4. CCCCCCCCCCCC1=[N+](Cc2c(F)cccc2Cl)CCc2cc(OC)c(OC)cc21.[Cl-] [Compound No. 68, 1-n-undecyl-2-(2-chloro-6-fluorophenyl)methyl-3,4-dihydro-6,7-dimethoxyisoquinolinium chloride] was tested, and the “Relative Activity” value was 2. For COc1cc2c(cc1OC)C(c1ccccc1F)=[N+](Cc1c(F)cccc1Cl)CC2.[Cl-] [Compound No. 69, 1-(2-fluorophenyl)-2-(2-chloro-6-fluorophenyl)methyl-3,4-dihydro-6,7-dimethoxyisoquinolinium chloride], the “Relative Activity” value was 6. For COc1cc2c(cc1OC)C(c1ccc(C(C)(C)C)cc1)=[N+](Cc1c(F)cccc1Cl)CC2.[Cl-] [Compound No. 70, 1-(4-t-butylphenyl)-2-(2-chloro-6-fluorophenyl)methyl-3,4-dihydro-6,7-dimethoxyisoquinolinium chloride], the “Relative Activity” value was 6. For COc1cc2c(cc1OC)C(C)=[N+](Cc1ccccc1[N+](=O)[O-])CC2.[Cl-] [Compound No. 71, 1-methyl-2-(2-nitrophenyl)methyl-3,4-dihydro-6,7-dimethoxyisoquinolinium chloride], the “Relative Activity” value was 6. With COc1cc2c(cc1OC)C(C(C)C)=[N+](Cc1ccccc1[N+](=O)[O-])CC2.[Cl-] [Compound No. 72, 1-i-propyl-2-(2-nitrophenyl)methyl-3,4-dihydro-6,7-dimethoxyisoquinolinium chloride] the “Relative Activity” value was 6. With CCCCCCCC1=[N+](Cc2ccccc2[N+](=O)[O-])CCc2cc(OC)c(OC)cc21.[Cl-] [Compound No. 73, 1-n-heptyl-2-(2-nitrophenyl)methyl-3,4-dihydro-6,7-dimethoxyisoquinolinium chloride] the “Relative Activity” value was 5. In the case of CCCCCCCCCCCC1=[N+](Cc2ccccc2[N+](=O)[O-])CCc2cc(OC)c(OC)cc21.[Cl-] [Compound No. 74, 1-n-undecyl-2-(2-nitrophenyl)methyl-3,4-dihydro-6,7-dimethoxyisoquinolinium chloride], the “Relative Activity” value is reported as 2. With COc1cc2c(cc1OC)C(c1ccc(C(C)(C)C)cc1)=[N+](Cc1ccccc1[N+](=O)[O-])CC2.[Cl-] [Compound No. 75, 1-(4-t-butylphenyl)-2-(2-nitrophenyl)methyl-3,4-dihydro-6,7-dimethoxyisoquinolinium chloride] the “Relative Activity” value was 6. With CCCCCCCC1=[N+](Cc2ccc(O)c([N+](=O)[O-])c2)CCc2cc(OC)c(OC)cc21.[Cl-] [Compound No. 76, 1-n-heptyl-2-(4-hydroxy-3-nitrophenyl)methyl-3,4-dihydro-6,7-dimethoxyisoquinolinium chloride] the “Relative Activity” value was 4. With CCCCCCCCCCCC1=[N+](Cc2ccc(O)c([N+](=O)[O-])c2)CCc2cc(OC)c(OC)cc21.[Cl-] [Compound No. 77, 1-n-undecyl-2-(4-hydroxy-3-nitrophenyl)methyl-3,4-dihydro-6,7-dimethoxyisoquinolinium chloride] the “Relative Activity” value was 2. In the case of COc1cc2c(cc1OC)C(C)=[N+](Cc1cc(Br)c(OC)c(OC)c1)CC2.[Cl-] [Compound No. 78, 1-methyl-2-(3-bromo-4,5-dimethoxy)methyl-3,4-dihydro-6,7-dimethoxyisoquinolinium chloride], the “Relative Activity” value is reported as 6. For CCCCCCCC1=[N+](Cc2cc(Br)c(OC)c(OC)c2)CCc2cc(OC)c(OC)cc21.[Cl-] [Compound No. 79, 1-n-heptyl-2-(3-bromo-4,5-dimethoxyphenyl)methyl-3,4-dihydro-6,7-dimethoxyisoquinolinium chloride], the “Relative Activity” value was 5. For COc1ccc2c(c1)CC[N+](Cc1ccccc1F)=C2C.[Cl-] [Compound No. 80, 1-methyl-2-(2-fluorophenyl)methyl-3,4-dihydro-6-methoxyisoquinolinium chloride], the “Relative Activity” value was 6. With CCC1=[N+](Cc2ccccc2F)CCc2cc(OC)ccc21.[Cl-] [Compound No. 81, 1-ethyl-2-(2-fluorophenyl)methyl-3,4-dihydro-6-methoxyisoquinolinium chloride] the “Relative Activity” value was 6. In the case of CCCC1=[N+](Cc2ccccc2F)CCc2cc(OC)ccc21.[Cl-] [Compound No. 82, 1-n-propyl-2-(2-fluorophenyl)methyl-3,4-dihydro-6-methoxyisoquinolinium chloride], the “Relative Activity” value is reported as 6. For COc1ccc2c(c1)CC[N+](Cc1ccccc1F)=C2CC(C)C.[Cl-] [Compound No. 84, 1-(2-methyl)propyl-2-(2-fluorophenyl)methyl-3,4-dihydro-6-methoxyisoquinolinium chloride], the “Relative Activity” value was 6.
